According to ChEMBL document CHEMBL5137064, “Therapeutic Potential and Activity Modulation of the Protein Lysine Deacylase Sirtuin 5” (J Med Chem, 2022):
One block for each compound: values may come before it. *1 amine or outer side, *2 acyl side, *3 side chain or, on linkers, in order; H or OH if unused. Where a SMILES comes first, the peptide text is derived from it. Bridges are numbered along the chain shown (N, C = ends). [ ]: non-standard residue; d: D form. The star is where a group is joined. X1 = O=C(O)CCNC(=S)NCCCC[C@H](N[*:1])C(=O)[*:2]; Heptanedioyl = O=C(CCCCCC(=O)[*:2])[*:1]; X4 = CC(=O)SC(CC(=O)*)C(=O)O; Bz = O=C(c1ccccc1)*

Assays:
[1] = molecular target: T1, NAD-dependent protein deacetylase sirtuin-1 (Homo sapiens) (UniProt Q96EB6); experiment: Inhibition of SIRT1 (unknown origin) at 10 uM relative to control
T1 sequence (whole entry): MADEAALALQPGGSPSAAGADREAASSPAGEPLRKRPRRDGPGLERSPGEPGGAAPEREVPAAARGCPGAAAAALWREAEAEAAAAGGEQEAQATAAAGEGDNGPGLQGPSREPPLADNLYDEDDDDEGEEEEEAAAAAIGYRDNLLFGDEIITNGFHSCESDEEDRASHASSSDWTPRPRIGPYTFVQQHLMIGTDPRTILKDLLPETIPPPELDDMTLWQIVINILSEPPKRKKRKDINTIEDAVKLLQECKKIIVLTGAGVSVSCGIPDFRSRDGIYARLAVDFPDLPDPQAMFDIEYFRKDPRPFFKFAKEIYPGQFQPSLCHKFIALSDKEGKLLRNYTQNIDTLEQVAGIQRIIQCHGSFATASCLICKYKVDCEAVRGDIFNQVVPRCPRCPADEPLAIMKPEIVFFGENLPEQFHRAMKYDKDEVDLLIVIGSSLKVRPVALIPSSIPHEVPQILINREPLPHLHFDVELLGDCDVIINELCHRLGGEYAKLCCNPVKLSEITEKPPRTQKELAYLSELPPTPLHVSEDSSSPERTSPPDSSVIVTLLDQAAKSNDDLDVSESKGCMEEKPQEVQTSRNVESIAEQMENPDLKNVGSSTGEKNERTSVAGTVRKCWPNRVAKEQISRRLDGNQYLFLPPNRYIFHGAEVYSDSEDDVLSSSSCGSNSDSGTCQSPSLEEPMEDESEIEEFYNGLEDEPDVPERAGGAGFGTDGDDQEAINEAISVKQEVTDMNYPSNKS

[2] = molecular target: T2, NAD-dependent protein deacylase sirtuin-5, mitochondrial (Homo sapiens, UniProt Q9NXA8); experiment: Inhibition of SIRT5 deglutarylase activity (unknown origin)
T2 sequence (Q9NXA8 whole entry): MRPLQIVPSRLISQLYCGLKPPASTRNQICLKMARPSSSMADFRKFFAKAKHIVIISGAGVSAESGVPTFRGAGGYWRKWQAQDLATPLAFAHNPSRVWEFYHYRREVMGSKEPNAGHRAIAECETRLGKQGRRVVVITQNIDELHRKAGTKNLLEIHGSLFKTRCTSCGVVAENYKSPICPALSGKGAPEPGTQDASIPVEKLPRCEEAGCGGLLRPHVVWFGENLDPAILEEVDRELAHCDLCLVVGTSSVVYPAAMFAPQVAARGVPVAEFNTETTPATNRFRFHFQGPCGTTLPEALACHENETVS

[3] = molecular target: T2, NAD-dependent protein deacylase sirtuin-5, mitochondrial; experiment: Inhibition of human recombinant SIRT5 using fluorogenic Benzyl-Lys(Succinyl)-AMC as substrate incubated for 2 hrs measured by fluoroscence based microplate reader method
[4] = molecular target: T2, NAD-dependent protein deacylase sirtuin-5, mitochondrial; experiment: Inhibition of SIRT5 desuccinylase activity (unknown origin) using succinyl-lysine as substrate
[5] = molecular target: T2, NAD-dependent protein deacylase sirtuin-5, mitochondrial; experiment: Binding affinity to SIRT5 (unknown origin) assessed as desuccinylation activity by measuring inhibition constant
[6] = molecular target: T3, NAD-dependent protein deacetylase sirtuin-2 (Homo sapiens, UniProt Q8IXJ6); experiment: Inhibition of His6-tagged SIRT2 (unknown origin) desuccinylase activity incubated for 12 mins by HPLC based assay
T3 sequence (Q8IXJ6 whole entry): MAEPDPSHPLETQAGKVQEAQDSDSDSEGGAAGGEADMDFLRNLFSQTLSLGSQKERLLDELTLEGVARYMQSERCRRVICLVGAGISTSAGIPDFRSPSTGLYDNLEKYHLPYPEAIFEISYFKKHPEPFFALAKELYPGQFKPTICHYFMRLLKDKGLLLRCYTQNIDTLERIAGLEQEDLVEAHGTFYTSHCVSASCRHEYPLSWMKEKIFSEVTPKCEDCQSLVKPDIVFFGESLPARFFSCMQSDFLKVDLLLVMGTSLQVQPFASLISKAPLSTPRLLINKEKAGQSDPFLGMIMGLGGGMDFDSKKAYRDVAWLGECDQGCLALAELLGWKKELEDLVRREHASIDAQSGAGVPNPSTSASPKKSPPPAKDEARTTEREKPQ

[7] = molecular target: T4, NAD-dependent protein deacetylase sirtuin-1 (Homo sapiens, UniProt Q96EB6); experiment: Inhibition of His6-tagged SIRT1 (unknown origin) desuccinylase activity incubated for 10 mins by HPLC based assay
T4 sequence (Q96EB6 whole entry): T1 sequence (whole entry)

[8] = molecular target: T2, NAD-dependent protein deacylase sirtuin-5, mitochondrial; experiment: Inhibition of GST-tagged SIRT5 desuccinylase activity (unknown origin) incubated for 5 mins by HPLC based assay
[9] = molecular target: T5, NAD-dependent protein deacetylase sirtuin-3, mitochondrial (Homo sapiens, UniProt Q9NTG7); experiment: Inhibition of His6-tagged SIRT3 (unknown origin) desuccinylase activity incubated for 10 mins by HPLC based assay
T5 sequence (Q9NTG7 whole entry): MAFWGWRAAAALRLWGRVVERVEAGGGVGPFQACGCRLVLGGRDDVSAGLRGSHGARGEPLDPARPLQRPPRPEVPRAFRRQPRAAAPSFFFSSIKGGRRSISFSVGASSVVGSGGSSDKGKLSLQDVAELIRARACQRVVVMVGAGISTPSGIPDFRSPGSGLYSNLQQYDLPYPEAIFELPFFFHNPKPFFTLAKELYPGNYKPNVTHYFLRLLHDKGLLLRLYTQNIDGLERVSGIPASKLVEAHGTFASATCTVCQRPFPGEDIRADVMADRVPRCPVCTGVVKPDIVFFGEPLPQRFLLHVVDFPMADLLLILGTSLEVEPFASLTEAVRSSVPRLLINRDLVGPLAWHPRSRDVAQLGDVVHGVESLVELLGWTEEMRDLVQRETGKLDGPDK

[10] = molecular target: NAD-dependent protein deacylase sirtuin-6 (Homo sapiens, UniProt Q8N6T7); experiment: Inhibition of His6-tagged SIRT6 (unknown origin) desuccinylase activity incubated for 12 mins by HPLC based assay
Sequence of NAD-dependent protein deacylase sirtuin-6 (Q8N6T7 whole entry): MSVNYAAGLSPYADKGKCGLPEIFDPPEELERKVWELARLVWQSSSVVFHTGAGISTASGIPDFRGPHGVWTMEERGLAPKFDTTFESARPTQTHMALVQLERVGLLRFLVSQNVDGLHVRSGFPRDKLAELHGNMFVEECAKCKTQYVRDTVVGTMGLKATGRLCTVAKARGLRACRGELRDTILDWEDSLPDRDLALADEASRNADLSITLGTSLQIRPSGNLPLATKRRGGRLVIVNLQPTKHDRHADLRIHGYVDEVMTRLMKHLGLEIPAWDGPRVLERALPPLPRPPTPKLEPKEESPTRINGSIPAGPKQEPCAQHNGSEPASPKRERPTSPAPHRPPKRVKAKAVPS

OCI-AML2 = experiment: Induction of apoptosis in human OCI-AML2 cells at 10 uM relative to control; type: functional
SKM-1 = experiment: Induction of apoptosis in human SKM-1 cells at 5 uM relative to control; type: functional
[11] = molecular target: T2, NAD-dependent protein deacylase sirtuin-5, mitochondrial; experiment: Inhibition of SIRT5 activity (unknown origin)

inhibition [1]: 37%
IC50 [2]: ≤ 0.05 µM
Structure (SMILES): O=C(NC1CCC1)[C@H](Cc1c[nH]c2ccccc12)NC(=O)[C@H](CCCCNC(=S)NCCc1noc(=O)[nH]1)NS(=O)(=O)c1cccc(F)c1

IC50 [3]: 37.9 µM
Structure (SMILES): Cc1cc(C)cc(NC(=O)/C(C#N)=C/c2ccc(-c3ccc(C(=O)O)cc3)o2)c1

IC50 [4]: 4 µM
Structure (SMILES): N=C(N)NCCC[C@@H]1NC(=O)CCC(=O)NCCCC[C@@H](C(N)=O)NC(=O)[C@H](CCCCNC(=S)NCCC(=O)O)NC1=O

Ki [5]: 10.6 µM
Structure (SMILES): CC(=O)SC(CC(=O)NCCCC[C@H](NC(=O)[C@H](CC(C)C)NC(=O)[C@@H](NC(=O)CNC(=O)c1ccccc1)C(C)C)C(=O)N[C@@H](CCC(=O)O)C(=O)N[C@@H](Cc1ccc(O)cc1)C(=O)NCC(=O)N[C@H](C(N)=O)C(C)C)C(=O)O (some centres undefined) (Bz-GVLK(X4)EYGV-NH2)

IC50 [6]: > 1000 µM
IC50 [7]: > 1000 µM
IC50 [8]: 7.5 µM
IC50 [9]: > 1000 µM
IC50 [10]: > 1000 µM
Structure (SMILES): CC(=O)N[C@H]1CCCCNC(=O)CCCCCC(=O)NCCCC[C@@H](C(=O)N[C@H](C(N)=O)[C@@H](C)O)NC(=O)[C@H](CCCCNC(=S)NCCC(=O)O)NC(=O)[C@H](CCCNC(=N)N)NC1=O (Ac-KR[X1]KT-NH2; linker 1-4 via Heptanedioyl)

IC50 [3]: 16.4 µM
Structure (SMILES): N#C/C(=C\c1ccc(-c2ccc(C(=O)O)cc2)o1)C(=O)Nc1ccc(Cl)c(C(F)(F)F)c1

IC50 [2]: 0.23 µM
Structure (SMILES): O=C(O)CCNC(=S)NCCCC[C@H](NS(=O)(=O)c1cccc(F)c1)C(=O)N[C@@H](Cc1c[nH]c2ccccc12)C(=O)NC1CCCC1

IC50 [4]: 2.2 µM
Structure (SMILES): N=C(N)NCCC[C@@H]1NC(=O)CCCCCCC(=O)NCCCC[C@@H](C(N)=O)NC(=O)[C@H](CCCCNC(=S)NCCC(=O)O)NC1=O

IC50 [2]: 0.9 µM
Structure (SMILES): O=C(NC1CCC1)[C@H](Cc1c[nH]c2ccccc12)NC(=O)[C@H](CCCCNC(=S)NCCc1noc(=S)[nH]1)NS(=O)(=O)c1cccc(F)c1

Structure (SMILES): CC(C)NC(=O)[C@H](Cc1c[nH]c2ccccc12)NC(=O)[C@H](CCCCNC(=S)NCCC(=O)O)NC(=O)OCc1ccccc1
Activity (OCI-AML2): >80%
Activity (SKM-1): >80%

IC50 [11]: 5.1 µM
Structure (SMILES): O=C(NC1CCC1)[C@H](Cc1c[nH]c2ccccc12)NC(=O)[C@H](CCCCNC(=S)NCc1nnn[nH]1)NS(=O)(=O)c1cccc(F)c1

IC50 [4]: 6.5 µM
Structure (SMILES): N=C(N)NCCC[C@@H]1NC(=O)CCCCC(=O)NCCCC[C@@H](C(N)=O)NC(=O)[C@H](CCCCNC(=S)NCCC(=O)O)NC1=O

IC50 [3]: 22.7 µM
Structure (SMILES): Cc1ccc(NC(=O)/C(C#N)=C/c2ccc(-c3ccc(C(=O)O)cc3)o2)cc1C
